Measurements published in patent US7799915B2, “Anilino-pyrimidine analogs” (Wyeth LLC, priority 2004, dated 2010).

Tested on: IκBα in Hela cells treated with TNFα
Test: Western Analysis of IκBα
Assay type: cell-based
Conditions: Hela cells treated with compounds for 30 min before addition of TNFα (10 μg/ml), harvested after one hour; mouse anti-IκBα antibody
Method: Hela cells are plated at 6-well plate for 24 hours and treated with compounds for 30 min before the addition of TNFα (10 μg/ml). After one hour, Hela cells are harvested in MPER reagent (Pierce, Rockford, Ill.) containing 400 mM NaCl. Protein from all samples is quantified by the Bradford method. Cell lysates containing 30 μg of protein are electrophoresed on a 12% SDS-PAGE gel and transferred to a PVDF membrane using a Bio Rad liquid transfer apparatus. The PVDF membrane is incubated in TBST (TBS with 0.1% Tween-20) with 3% milk for 15 minutes before the addition of the first antibody, mouse anti-IκBα (Santa Cruz). After overnight incubation, the PVDF membrane is washed 3 times with TBST and incubated with secondary antibodies coupled with horseradish peroxidase (Transduction Labs) for one hour. The PVDF membrane is then washed 3 times with TBST and protein is detected using an enhanced chemiluminescence detection system (Pierce).

SMILES | result in Western analysis of IκBα
NS(=O)(=O)c1ccc(Nc2nccc(-c3ccc(Cl)s3)n2)cc1 [compound 4] | positive result
NS(=O)(=O)c1ccc(Nc2nccc(-c3ccc(C#Cc4ccccn4)s3)n2)cc1 [compound 35] | slightly positive result
O=S(=O)(NCCCO)c1ccc(Nc2nccc(-c3ccc(C(F)(F)F)cc3)n2)cc1 [compound 68] | positive result
COc1ccc(-c2ccnc(Nc3ccc(S(=O)(=O)NCCN(C)C)c(C(F)(F)F)c3)n2)cc1F [compound 167] | slightly positive result
COc1ccc(-c2ccnc(Nc3ccc(S(=O)(=O)NCCCN(C)C)c(Cl)c3)n2)cc1F [compound 173] | positive result
NS(=O)(=O)c1ccc(Nc2nccc(-c3ccc(/C=C/CO)cc3)n2)cc1 [compound 272] | positive result
